Columns and labels:
[1] = tested on: patients with unresectable pancreatic cancer; conditions: Moore et al. 2007; cited from earlier work
[2] = tested on: patients with metastatic pancreatic cancer; conditions: first-line, Conroy et al. 2011; cited from earlier work
[3] = tested on: patients with locally advanced, unresectable, or metastatic pancreatic adenocarcinoma; conditions: single agent, randomized trials; cited from earlier work
[4] = tested on: human cord blood mast cells; conditions: cited from earlier work
[5] = molecular target: discoidin domain receptor family member 1 (DDR1) kinase (Homo sapiens, UniProt Q08345); conditions: cited from earlier work
Sequence of discoidin domain receptor family member 1 (DDR1) kinase (Q08345 19-913, species assumed): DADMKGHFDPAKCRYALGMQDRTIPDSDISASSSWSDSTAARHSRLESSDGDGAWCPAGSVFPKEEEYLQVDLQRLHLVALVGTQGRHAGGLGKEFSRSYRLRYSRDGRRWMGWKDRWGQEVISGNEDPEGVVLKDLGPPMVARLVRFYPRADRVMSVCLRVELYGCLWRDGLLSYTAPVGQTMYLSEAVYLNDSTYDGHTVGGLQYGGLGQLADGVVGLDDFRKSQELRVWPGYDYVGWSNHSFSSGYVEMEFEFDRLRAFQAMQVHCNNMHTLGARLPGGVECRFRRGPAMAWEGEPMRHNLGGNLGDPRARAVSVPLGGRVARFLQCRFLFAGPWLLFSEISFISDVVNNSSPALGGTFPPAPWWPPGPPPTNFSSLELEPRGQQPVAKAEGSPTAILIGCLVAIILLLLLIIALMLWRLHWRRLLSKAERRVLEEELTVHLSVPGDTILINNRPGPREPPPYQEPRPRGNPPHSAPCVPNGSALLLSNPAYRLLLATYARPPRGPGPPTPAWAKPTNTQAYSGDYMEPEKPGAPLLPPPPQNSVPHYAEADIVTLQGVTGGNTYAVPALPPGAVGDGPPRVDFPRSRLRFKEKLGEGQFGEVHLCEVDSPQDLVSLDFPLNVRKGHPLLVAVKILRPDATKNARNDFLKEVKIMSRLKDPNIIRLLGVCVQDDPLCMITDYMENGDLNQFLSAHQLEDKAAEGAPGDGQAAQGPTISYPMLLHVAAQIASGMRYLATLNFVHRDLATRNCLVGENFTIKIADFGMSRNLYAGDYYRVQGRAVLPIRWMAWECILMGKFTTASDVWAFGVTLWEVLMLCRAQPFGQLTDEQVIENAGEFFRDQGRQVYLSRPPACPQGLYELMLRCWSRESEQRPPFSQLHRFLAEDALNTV

[6] = tested on: Ba/F3 cells expressing human or mouse wild-type c-Kit; conditions: read-out: IC50, stem cell factor-induced proliferation and c-Kit tyrosine phosphorylation; cited from earlier work
[7] = tested on: Ba/F3 cells expressing PDGFR-α; conditions: read-out: 1050, PDGF-BB-stimulated proliferation and PDGFR-α tyrosine phosphorylation; cited from earlier work
[8] = tested on: patients with advanced/metastatic pancreatic cancer; assay: Ancillary pharmacogenomic study of AB07012, overall survival by gene expression predictor factors; type: in vivo, human; conditions: full cohort with genomic information (n=119)

For Nc1ccn(C2OC(CO)C(O)C2(F)F)c(=O)n1 (stereo not shown) [gemcitabine, 4-amino-1-[3,3-difluoro-4-hydroxy-5-(hydroxymethyl)tetrahydrofuran-2-yl]-1H-pyrimidin-2-one], the 1-year survival rate [1] is given as 17%, the “median OS” value [1] is given as 5.91 months and the objective response rate [2] is given as 9.4%. The “survival (months lived)” value [2] was 6.8 months, the 12-month survival [3] was “approximately 20%” and the median survival [3] was “approximately 6 months”.

In the case of Cc1ccc(NC(=O)c2ccc(CN3CCN(C)CC3)cc2)cc1Nc1nc(-c2cccnc2)cs1 [masitinib, 4-(4-methylpiperazin-1-ylmethyl)-N-[4-methyl-3-(4-pyridin-3ylthiazol-2-ylamino)phenyl]benzamide], the “FcεRI-mediated degranulation of human cord blood mast cells” value [4] is given as “inhibition”, the “inhibition of DDR1 autophosphorylation” value [5] is given as “pronounced inhibition” and the IC50 [6] is given as 150 ± 80 nM. For the same molecule, the IC50 [7] was 300 ± 5 nM and the “median OS” value [8] was 7.7 months.

For Folfirinox, the objective response rate [2] is listed as 31.6% and the “survival (months lived)” value [2] is listed as 11.1 months.

Source: patent US10238649B2 (AB SCIENCE, priority 2012, dated 2019)
